Experimental data from patent US8420592B2, “Methods of treatment using single doses of oritavancin” (The Medicines Company, priority 2008, dated 2013).

Legend:
[1] = test system: S. aureus (MSSA, MRSA, and VRSA); settings: within 15 minutes to 2 hours against MSSA, McKay et al. 2009; cited from earlier work
[2] = test system: Enterococcus faecalis; assay: Phase 2 cSSSI study: cure rate by baseline pathogen; assay type: in vivo; settings: Enterococcus faecalis at baseline
Experimental: (§1) The primary efficacy endpoint was the clinical response in the CE population at TOC, which occurred 20 to 28 days after study enrollment on Day 1. Clinical response was determined by the investigator as part of the end-of-therapy, TOC, and late follow-up procedures by assessing signs and symptoms including fever, pain, tenderness, erythema, induration, edema, purulent drainage, eschar, and devitalized tissue. A clinical response of cure, improvement, failure, or indeterminate was assigned at end-of-therapy and TOC by the investigator based on clinical signs and symptoms. At late follow-up, the investigator could assign the clinical response of relapse in addition to cure, improvement, or indeterminate. Only patients with a clinical response of cure or improvement at TOC were assessed for clinical response at late follow-up.
(§2) Cure was defined as resolution of purulent drainage, pain, edema, fever, erythema, tenderness, and induration. Serous drainage or aspirate and/or granulation tissue could be present. Improvement was defined as resolution of purulent drainage and, in the case of cellulitis, cessation of fever and pain. Residual erythema, edema, pain (in the case of wound or abscess), tenderness, and/or induration could be present as could serous drainage, granulation tissue, eschar, and/or devitalized tissue. Failure included any of the following: presence of purulent drainage (or aspirate) and/or fever; the unanticipated need for abscess drainage or removal of sutures (for treatment of infection)>48 hours after initiation of study therapy; or treatment with nonstudy systemic antibiotic having activity against gram-positive pathogen(s) for the primary infection site or use of topical antibiotics at the site of primary infection 24 hours or more after initiation of study medication therapy.
(§3) Blood and infection site cultures were obtained within three days of enrollment (often done at the time of enrollment). End-of-therapy, TOC, and late follow-up (or at early relapse) cultures were obtained from the infection site if clinically indicated. […] Specimens were cultured and pathogens were identified at each investigative site's certified laboratory. All isolated gram-positive pathogen(s) that were obtained from the infection site at baseline/randomization and up to and including the TOC time point were subcultured and sent to a central laboratory (Covance Clinical Laboratories, Indianapolis, Ind.) for confirmatory identification and susceptibility testing. In cases of discrepancy between the local and the central laboratory, central laboratory results were used.

[3] = test system: Staphylococcus aureus; assay: as above; assay type: in vivo; settings: S. aureus at baseline, TOC
Experimental: as §1, §2, §3

[4] = test system: Streptococcus agalactiae; assay: as above; assay type: in vivo; settings: Streptococcus agalactiae at baseline
Experimental: as §1, §2, §3

[5] = test system: Streptococcus pyogenes; assay: as above; assay type: in vivo; settings: Streptococcus pyogenes at baseline
Experimental: as §1, §2, §3

[6] = test system: MSSA or MRSA strains; assay: Neutropenic-mouse thigh infection model, MSSA or MRSA strains, 72 h post-infection; assay type: in vivo, Staphylococcus aureus; settings: independently of their MIC
Experimental: Methods: Thigh infection was established for 14 clinical SA isolates (3 MSSA and 11 MRSA; MICs 0.0015 to 2 μg/mL) in neutropenic CD-1 mice (n=3/group) with 5×10^5 colony forming units (CFU) of cells. Single intravenous doses of ORI (0.5 to 40 mg/kg) were tested against one MSSA and one MRSA strain. […] Both thighs were harvested and CFU counts were evaluated after 24 h (single doses) or 72 h (HEQ doses) treatment.
In vivo studies: All studies were performed in accordance with protocols that were approved by the Institutional Animal Care and Use Committee. Thigh infection was established for 14 clinical S. aureus isolates in neutropenic CD-1 mice (19-21 g, n=3/group) with 5×10^5 colony forming units (CFU) of cells in both thighs. In the single dose-response study, the number of bacteria/thigh was monitored 24 h post-infection (PI). In the human equivalent (HEQ) dose-ranging study, the bacterial titer was determined in mouse thighs at 2, 4, 8, 12, 24, 48 and 72 h PI. Thighs were serially diluted and plated on Baird-Parker agar plates to determine the bacterial titer. The limit of detection was 1.69 Log10 CFU/thigh. Bacterial titer decreases were calculated (compared to starting inoculum) in thighs at 72 h PI for each HEQ dose regimen of ORI.
Antibiotherapy: 1) In the single dose response study, mice were treated intravenously (IV) with ORI at doses ranging from 0.4 to 40 mg/kg at lh PI. […]

CN[C@H](CC(C)C)C(=O)N[C@H]1C(=O)N[C@@H](CC(N)=O)C(=O)N[C@H]2C(=O)N[C@H]3C(=O)N[C@H](C(=O)N[C@H](C(=O)O)c4cc(O)cc(O)c4-c4cc3ccc4O)[C@H](O[C@H]3C[C@](C)(N)[C@@H](O)[C@H](C)O3)c3ccc(c(Cl)c3)Oc3cc2cc(c3O[C@@H]2O[C@H](CO)[C@@H](O)[C@H](O)[C@H]2O[C@H]2C[C@](C)(NCc3ccc(-c4ccc(Cl)cc4)cc3)[C@@H](O)[C@H](C)O2)Oc2ccc(cc2Cl)[C@H]1O [Oritavancin, N-(4-(4-chlorophenyl)benzyl)A82846B]
Bactericidal activity, log reduction [1]: ≥ 3 log
% of patients cured (cure and improvement) ([2]; 200 mg daily dose): 50.0%
% of patients cured (cure and improvement) ([2]; 800 mg infrequent dose): 100%
% of patients cured (cure and improvement) ([2]; 1200 mg single dose): 100%
% of patients cured (cure and improvement) ([3]; 200 mg daily dose): 67.4%
% of patients cured (cure and improvement) ([3]; 800 mg infrequent dose): 79.5%
% of patients cured (cure and improvement) ([3]; 1200 mg single dose): 78.9%
% of patients cured (cure and improvement) ([4]; 200 mg daily dose): 33.3%
% of patients cured (cure and improvement) ([4]; 800 mg infrequent dose): 100%
% of patients cured (cure and improvement) ([4]; 1200 mg single dose): 100%
% of patients cured (cure and improvement) ([5]; 200 mg daily dose): 66.7%
% of patients cured (cure and improvement) ([5]; 800 mg infrequent dose): 100%
% of patients cured (cure and improvement) ([5]; 1200 mg single dose): 100%
Efficacy against MSSA or MRSA strains [6]: active against all tested strains
